Results published in PubChem BioAssay (NCI).
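Each compound was tested at five concentrations against cells in 96-well plates for 48 hours. At the GI50, growth is halved. TGI denotes the concentration required for complete inhibition of growth.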

How the values were obtained:
Assay in all cases: DTP human tumour cell line panel, 48 h
[1] = system: OVCAR-3 ovarian
[2] = system: CAKI-1 renal
[3] = system: TK-10 renal
[4] = system: HOP-92 NSCLC
[5] = system: NCI/ADR-RES ovarian
[6] = system: OVCAR-8 ovarian
[7] = system: UACC-257 melanoma
[8] = system: SR leukemia
[9] = system: NCI-H522 lung
[10] = system: BT-549 breast
[11] = system: DU-145 prostate
[12] = system: SNB-75 CNS
[13] = system: MOLT-4 leukemia
[14] = system: KM12 colon
[15] = system: SN12C renal
[16] = system: SF-539 CNS
[17] = system: OVCAR-5 ovarian
[18] = system: IGROV1 ovarian
[19] = system: ACHN renal
[20] = system: PC-3 prostate
[21] = system: CCRF-CEM leukemia
[22] = system: MALME-3M melanoma
[23] = system: MDA-MB-468 breast
[24] = system: MDA-MB-435
[25] = system: SF-295 CNS
[26] = system: NCI-H460 lung
[27] = system: LOX IMVI melanoma
[28] = system: HCT-15 colon
[29] = system: SK-MEL-28 melanoma
[30] = system: OVCAR-4 ovarian
[31] = system: RPMI-8226 leukemia
[32] = system: K-562 leukemia
[33] = system: HOP-62 NSCLC
[34] = system: NCI-H226 lung
[35] = system: SNB-19 CNS
[36] = system: HS 578T breast
[37] = system: A498 renal
[38] = system: MCF7 breast
[39] = system: M14 melanoma
[40] = system: UO-31 renal
[41] = system: HCT-116 colon
[42] = system: SK-MEL-5 melanoma
[43] = system: UACC-62 melanoma
[44] = system: T-47D breast
[45] = system: SK-OV-3 ovarian
[46] = system: NCI-H23 lung
[47] = system: U251 CNS
[48] = system: SF-268 CNS
[49] = system: COLO 205 colon
[50] = system: RXF 393 renal
[51] = system: MDA-MB-231 breast
[52] = system: HL-60(TB) leukemia
[53] = system: A549 NSCLC
[54] = system: HT29 colon
[55] = system: SW-620 colon
[56] = system: HCC-2998 colon
[57] = system: SK-MEL-2 melanoma
[58] = system: 786-0 renal
[59] = system: EKVX NSCLC

## COc1ccc(C(C)=C(c2ccc(OCCCN(C)C)cc2)c2ccc(OCCCN(C)C)cc2)cc1
[1]
  GI50: 678 nM
  TGI: 2300 nM
[2]
  GI50: 2710 nM
  TGI: 5350 nM
[3]
  GI50: 3380 nM
  TGI: 6360 nM
[4]
  GI50: 1100 nM
  TGI: 4270 nM
[5]
  GI50: 3090 nM
  TGI: 6150 nM
[6]
  GI50: 3620 nM
  TGI: 7600 nM
[7]
  GI50: 3270 nM
  TGI: 6420 nM
[8]
  GI50: 523 nM
  TGI: 1730 nM
[9]
  GI50: 2420 nM
  TGI: 5330 nM
[10]
  GI50: 3200 nM
  TGI: 6220 nM
[11]
  GI50: 2100 nM
  TGI: 4600 nM
[12]
  GI50: 2130 nM
  TGI: 4660 nM
[13]
  GI50: 1080 nM
  TGI: 4050 nM
[14]
  GI50: 2600 nM
  TGI: 5500 nM
[15]
  GI50: 2950 nM
  TGI: 5720 nM
[16]
  GI50: 788 nM
  TGI: 2850 nM
[17]
  GI50: 2820 nM
  TGI: 5550 nM
[18]
  GI50: 2960 nM
  TGI: 5750 nM
[19]
  GI50: 2620 nM
  TGI: 5230 nM
[20]
  GI50: 2750 nM
  TGI: 6070 nM
[21]
  GI50: 593 nM
  TGI: 1960 nM
[22]
  GI50: 558 nM
  TGI: 1890 nM
[23]
  GI50: 705 nM
  TGI: 3010 nM
[24]
  GI50: 537 nM
  TGI: 1830 nM
[25]
  GI50: 2490 nM
  TGI: 5290 nM
[26]
  GI50: 899 nM
  TGI: 3430 nM
[27]
  GI50: 625 nM
  TGI: 2080 nM
[28]
  GI50: 1090 nM
  TGI: 3790 nM
[29]
  GI50: 2490 nM
  TGI: 5070 nM
[30]
  GI50: 2220 nM
  TGI: 5220 nM
[31]
  GI50: 2180 nM
  TGI: 8530 nM
[32]
  GI50: 621 nM
  TGI: 5040 nM
[33]
  GI50: 3080 nM
  TGI: 6170 nM
[34]
  GI50: 3000 nM
  TGI: 6280 nM
[35]
  GI50: 3200 nM
  TGI: 6060 nM
[36]
  GI50: 2440 nM
  TGI: 6220 nM
[37]
  GI50: 2730 nM
  TGI: 5510 nM
[38]
  GI50: 418 nM
  TGI: 3060 nM
[39]
  GI50: 427 nM
  TGI: 930 nM
[40]
  GI50: 2740 nM
  TGI: 5400 nM
[41]
  GI50: 795 nM
  TGI: 3210 nM
[42]
  GI50: 2570 nM
  TGI: 5200 nM
[43]
  GI50: 2970 nM
  TGI: 5730 nM
[44]
  GI50: 1570 nM
  TGI: 4980 nM
[45]
  GI50: 3260 nM
  TGI: 6190 nM
[46]
  GI50: 2900 nM
  TGI: 5880 nM
[47]
  GI50: 2710 nM
  TGI: 6000 nM
[48]
  GI50: 2800 nM
  TGI: 5940 nM
[49]
  GI50: 799 nM
  TGI: 3080 nM
[50]
  GI50: 1090 nM
  TGI: 3920 nM
[51]
  GI50: 1550 nM
  TGI: 4230 nM
[52]
  GI50: 735 nM
  TGI: 3030 nM
[53]
  GI50: 2990 nM
  TGI: 7480 nM
[54]
  GI50: 426 nM
  TGI: 867 nM
[55]
  GI50: 982 nM
  TGI: 3620 nM
[56]
  GI50: 2160 nM
  TGI: 4790 nM
[57]
  GI50: 3330 nM
  TGI: 6330 nM
[58]
  GI50: 491 nM
  TGI: 1460 nM
[59]
  GI50: 2980 nM
  TGI: 5890 nM
